Values of other authors, collected in US20220212015A1, “SURGICAL SYSTEM AND METHODS OF USE” (priority 2021, published 2022).

System: myofibroblast formation
Conditions: Ajmal et al. (2003)

O=S(=O)([O-])CCS.[Na+] [MESNA, sodium 2-mercaptoethane sulfonate]
effect on myofibroblast formation: diminish myofibroblast formation
